For data set [1], the system named is human PDE IV (neutrophils). The experiment in a line: TEST A: Human PDE Isoenzyme Inhibition Assay, type IV. The format is biochemical. From the text: C2 H5 OH. For pharmacological experiments it should be diluted at least 1:10,000.]
TEST A: Human PDE Isoenzyme Inhibition Assay
All isoenzyme preparations are derived from human sources. Type III and IV preparations are obtained taking advantage of the predominance of type III isoenzymes in platelets and of type IV isoenzymes in neutrophils applying the following techniques:
Neutrophils (type IV) and platelets (types II and III) are obtained from human blood and sonicated (Branson probe, 4×15 sec.). Human lung (types I and V) is obtained from patients undergoing surgery and homogenized using a Polytron homogenizer (two bursts of 30 sec).
Isoenzyme preparations: PDE III and IV (substrate cAMP 1 μM) preparations consist of low-speed supernates of the platelet and neutrophil homogenates, respectively.

The subject of the next data set is human eosinophils. The data set can be described thus: TEST B: Inhibition of Eosinophil Activation by fMLP (oxidative burst, chemiluminescence). It is filed as cell-based. The settings on record: fMLP 1 μM, hydrogen-oxalate salt. The procedure: TEST B: Inhibition of Eosinophil Activation by formyl-MetLeuPhe (fMLP)
Purified human eosinophils (10^4 /well in 0.2 ml HBSS) are stimulated with fMLP (1 μM) in the presence of lucigenin (25 μM). Inhibition of the oxidative burst (measured as changes in chemiluminescence) is determined from dose response curves using the logistic equation.

Data set [2] deals with TNFα secretion, THP-1 cells. The experiment in a line: TEST C: Inhibition of TNFα Secretion (THP-1 cells, γ-interferon/LPS). The format is cell-based. The settings on record: Homo sapiens, LPS, γ-interferon, 40 hours, hydrogen-oxalate salt. The procedure:
TEST C: Inhibition of TNFα Secretion
900 μl THP-1 cells (0.5 10^6 cells together with 100 U γ-interferon/0.9 ml) are pipetted into 24 well culture plates and followed by 100 μl test substance. After 3 hours at 37° C. in 5% CO2 /95% air, 10 μl LPS 5 μg/ml is added and the incubation continued for a further 40 hours. Appropriate controls are also included. The media are then removed and clarified by centrifugation at 1000 g for 10 min. 1.0 ml digitonin 0.01% is added to the wells to lyse the cells which are loosened by scraping with a rubber policeman and left at 4° C. for 10 min. Lactate dehydrogenase measurements are then performed immediately and the samples stored at […] until the other determinations can be performed. The assays are: IL-1β (medium), TNF-α (medium), and DNA (lysates). IL-1β, and TNF-α assays are determined using commercially available ELISA kits.
The method of Kapuscinski et al Anal. Biochem. (83, 252-257 (1977) is used to assay DNA. 300 μl samples of cell lysate in 0.01% digitonin are mixed with 750 μl tris-HCl buffer pH 7.0 (containing 13.2 mM Na2 SO4), 300 μl H2 O and 150 μl DAPI (4',6-diamidino-2-phenylindole.2HCl) 2 μg/ml. The fluorescence is then measured at 372 nm (excitation) and 454 nm (emission) using a Perkin Elmer 3000 fluorimeter. The samples are read against a standard curve of calf thymus DNA (0.5 to 10 μg/ml) run at the same time. […]

Data set [3] relates to bacterial endotoxin (LPS) induced airways obstruction and lethality. The data set can be described thus: TEST E: Bacterial Endotoxin [LPS] Induced Lethality in the Guinea Pig. It is filed as in vivo. The settings on record: 100/μg/kg/min.; hydrogen-oxalate salt. The procedure:
TEST E: Bacterial Endotoxin [LPS] Induced Lethality in the Guinea Pig
Guinea-pigs are anesthetized by intraperitoneal injection of sodium phenobarbitone (100 mg/kg.) supplemented with sodium pentobarbitone (30 mg/kg) and paralyzed by intramuscular injection of gallamine (10 mg/kg). Animals are ventilated (8 ml/kg, 1 Hz) with a mixture of air and oxygen (40:60, v/v) via a tracheal cannula. Ventilation is monitored at the trachea by a pneumotachograph connected to a differential pressure transducer. […] Blood pressure and heart rate are recorded from the carotid artery using a pressure transducer and a cannula is introduced into the right jugular vein to allow intravenous infusion of test substance min prior to and concomitantly with infusion of LPS at a constant rate (3.0 ml/hr to give 10 mg/kg/hr) from an infusion pump. The left jugular vein is cannulated for administration of (±) propranolol (1 mg/kg) injected as an intravenous bolus. […] Experimental data is stored continuously and, on termination of an experiment, experimental traces or processed data are plotted.
Infusion of [±propanolol] ensures consistent susceptibility to LPS. In anesthetized animals pre-treated with [±] propanalol, infusion of LPS in the above model induces progressive airway obstruction. Death consequential to endotoxin shock usually occurs within ca. 1 hr of terminating LPS infusion.

The subject of data set [4] is lymphocytes from the spleen of Balb/c and CBA mice. The experiment in a line: TEST L: Murine Mixed Lymphocyte Reaction. It is filed as cell-based. The conditions noted are these: Mus musculus, 120 h, thymidine incorporation, 5 days, hydrogen-oxalate salt. The method, then: TEST L: Murine Mixed Lymphocyte Reaction
Ca. 0.5×10^6 lymphocytes from the spleen of female (8-10 weeks) Balb/c mice are incubated for 5 days in 0.2 ml cell growth medium with ca. 0.5×10^6 lymphocytes from the spleen of female (8-10 weeks) CBA mice. Test substance is added to the medium at various concentrations. Activity is assessed by ability to suppress proliferation associated DNA synthesis as determined by incorporation of radiolabelled thymidine.

Another data set has as its system cardiovascular effects. The experiment in a line: Doppler aortic flow test in the rabbit. It is filed as in vivo. The conditions noted are these: hydrogen-oxalate salt. The text has this:
Thus in a series of experiments using the Doppler aortic flow test in the rabbit [J. Pharmacol. Meth.

A short description of data set [5]: hemodynamics, plasma glucose and tolerability in conscious dogs. The conditions noted are these: hydrogen-oxalate salt. It is filed as in vivo, dog.
Data set [6] is described as follows: stock solution of the hydrogen-oxalate salt. The settings on record: 10% Tween in 80% abs. C2H5OH. The format is physicochemical. The method, then:
[All experiments described below are suitably done using the hydrogen-oxalate salt of the test compound, e.g. compound of example 1. In the case of the example 1 compound a stable 30 mM stock solution of the hydrogen-oxalate salt may be prepared with 10% Tween in 80% abs. C2 H5 OH. For pharmacological experiments it should be diluted at least 1:10,000.]

Where [7] appears, read: up to 0.3 mg/kg i.v. or 0.6 mg/kg p.o.

Each structure is given as a SMILES string.

In the case of `CCc1cc2cc(OCCO)c(OC)cc2c(-c2cc(OC(C)C)cc(OC(C)C)c2)n1` [Example 1, 1-(3,5-diisopropoxyphenyl)-3-ethyl-6-(2-hydroxyethoxy)-7-methoxy-isoauinoline], the IC50 was 2.9 ± 1.2 nM in data set [1] (TEST A, 1 μM [3H]-cyclic AMP substrate, hydrogen-oxalate salt); 60 ± 30 nM with human eosinophils; about 100 nM in data set [2]; 12 ± 9 nM in data set [4]. The “fold greater activity in inhibiting the type IV isoenzyme than other isoenzyme preparations tested” value in data set [1] (type IV vs other isoenzyme preparations, hydrogen oxalate salt) was “at least 180 fold”. Further, the “lethality (TEST E)” value in data set [3] is listed as “no animals dying”. In addition, the “protection (TEST E)” value in data set [3] is listed as “COMPLETE PROTECTION”. Further, the “heart rate (rabbit)” value in the data set with cardiovascular effects (of the order of 1 mg/kg) is given as “only slight decrease in heart rate”. Moreover, in the data set with cardiovascular effects (up to the order of 0.3 mg/kg), the cardiovascular side effects result is given as “no cardiovascular side effects”. Further, in data set [5] (all dosages), the tolerability result is given as “generally well tolerated”. For the same molecule, the “change in heart rate” value in data set [5] (setting [7]) is listed as “no or only minimal change”. In addition, in data set [5] (setting [7]), the “change in mean arterial pressure” value is “no or only minimal change”. Moreover, in data set [5] (setting [7]), the “change in plasma glucose concentrations” value is recorded as “no or only minimal change”. In data set [6], the stable stock solution was determined as 30 mM.

These data come from US5747506A, “Isoquinoline compounds, compositions containing them and their pharmaceutical uses” (Novartis AG, priority 1993, dated 1998).
